We go through one sequence from patent US8653233B2, “Compositions and methods for preventing or treating cancer” (University of Nebraska Medical Center, priority 2003, dated 2014).

The data set deals with Panc02.MUC1 tumor cells. As to the kind of experiment: MUC1 cytoplasmic tail peptide vaccination and Panc02.MUC1 tumor challenge.

Where no end group is shown, it is not given here.

With “CQCRRKNYGQLDIFPARDTYHPMSEYPTYH (cysteine pairing not given here) [SEQ ID NO:47]”, the survival result (MUC1.Tg mice, three s.c. vaccinations at seven day intervals, Panc02.MUC1 challenge 10 days after final, vs control peptide or nonvaccinated, p<0.05) is “significant increase in survival”. For the same sequence, the autoimmunity in organs result (necropsy and histology, vaccinated MUC1.Tg mice challenged with Panc02.MUC1) is reported as “no evidence of autoimmunity”.
